# Test results: paper PMC4864329, “In vitro and in vivo efficacy, toxicity, bio-distribution and resistance selection of a novel antibacterial drug candidate” (Scientific Reports, 2016)
# Positions of bridges follow the written chain, without caps; N, C: chain ends. Non-standard residues stand in square brackets, D forms with d. Residues, ends and D or L forms follow the SMILES beside them. Chains are numbered I, II in the order given. PEG4 = NCCOCCOCCOCCOCCC(=O)O
# Key:
# [1] = tested on: P. aeruginosa PAO1; assay: Lung infection model in neutropenic BALB/c mice, i.v. treatment, survival; type: in vivo, Pseudomonas aeruginosa; conditions: PAO1 1.5 × 10^3 CFU/mouse i.t., 5 mg/Kg i.v. twice, 1 and 16 h post-infection, 10 days, 10 mice/group
# Protocol: Neutropenic mice were injected intra-tracheally (i.t.) with a lethal amount of P. aeruginosa PAO1 (1.5 × 10^3 CFU/mouse). They were then treated twice i.v. 1 and 16 hours post-infection with SET-M33L or SET-M33L-PEG 5 mg/Kg and monitored for survival for 10 days. We obtained 40% and 60% survival with SET-M33L and SET-M33L-PEG, respectively (Fig. 2A).
# Animal procedures were approved by the Ethics Committees of the Azienda Ospedaliera Universitaria Senese on November 18, 2010, and of the Italian Ministry of Health on September 21, 2012. Eight-week-old (20 g) BALB/c female mice (Charles River) were used in all experiments. The animals were maintained and handled in accordance with the Guidelines for Accommodation and Care of Animals (European Convention for the Protection of Vertebrate Animals Used for Experimental and Other Scientific Purposes) and internal guidelines. For each experiment the animals were housed in groups of five mice per cage upon arrival and maintained with food and water ad libitum for 5 days before the beginning of treatment. All p values were calculated using GraphPad Prism 5.0 software.
# We set up two lung infection models, one for i.v. and the other for intra-tracheal (i.t.) treatment. In the i.v. model, animals were made neutropenic as described in the sepsis model. […] Surviving mice were monitored for 10 days. […]
# [2] = tested on: BALB/c mice; assay: Acute toxicity in mice, single i.v. dose; type: in vivo, mouse
# Protocol: As preliminary toxicity evaluation we first compared the acute toxicity of SET-M33L and SET-M33L-PEG with that of colistin. Animals (10 BALB/c mice/group) were injected i.v. with different amounts of SET-M33L, SET-M33L-PEG or colistin, in single dose, in the range 5–40 mg/kg (Fig. 4), and were monitored for 4 days after inoculation of the peptide. […] At 40 mg/Kg SET-M33L and SET-M33L-PEG produced similar toxicity profiles with strong signs of toxicity and 90–100% mortality after 96 hours. Colistin produced strong signs of toxicity already at 10 mg/Kg: 50% mortality immediately after inoculation and 70% mortality after 24 hours. Colistin induced sudden death in 100% of mice at 20 and 40 mg/Kg.
# Mice were treated by a single i.v. administration of different amounts (40, 20, 10, 5 mg/Kg) of SET-M33L, SET-M33L-PEG or colistin sulfate (Sigma-Aldrich, C4461). Signs of toxicity were checked four times a day by visual inspection. A toxicity score was assigned for the following signs: wiry coat and poor motility = mild signs; very wiry coat, abundant lachrymation and poor motility even under stimulation = manifest signs. Animals were monitored for 4 days after inoculation of the peptide. Mice were weighed every day from arrival to the last day of the experiment. Moribund animals were killed humanely to avoid unnecessary distress.
# [3] = tested on: P. aeruginosa PAO1; assay: Sepsis model in neutropenic BALB/c mice, survival; type: in vivo, Pseudomonas aeruginosa; conditions: PAO1 1.5 × 10^3 CFU/mouse i.p., 5 mg/Kg i.v. twice, 24 and 72 h post-infection, 12 days, 10 mice/group
# Protocol: Neutropenic mice were injected i.p. with a lethal amount of P. aeruginosa PAO1 (1.5 × 10^3 CFU/mouse). Then mice were treated twice i.v. with SET-M33L or SET-M33L-PEG (5 mg/Kg), 24 and 72 hours post-infection. Then animals were monitored for survival for 12 days. Survivals of 60% and 80% were obtained with SET-M33L or SET-M33L-PEG, respectively (Fig. 1). Note that this is a model of acute and rapidly progressive infection, since animals start to show signs of disease within 24 hours and controls died after 40–65 hours. Treatment with the peptides begun 24 h after onset of the infection. The relatively long interval between i.p. inoculation of bacteria and the start of i.v. treatment in animals with suppressed immune systems is a valid indication of the potency of the peptides in vivo.
# Animal procedures were approved by the Ethics Committees of the Azienda Ospedaliera Universitaria Senese on November 18, 2010, and of the Italian Ministry of Health on September 21, 2012. Eight-week-old (20 g) BALB/c female mice (Charles River) were used in all experiments. […] All p values were calculated using GraphPad Prism 5.0 software.
# In the Pseudomonas model of sepsis[35] animals were rendered neutropenic by i.p. administration of cyclophosphamide (Sigma-Aldrich C7397) at 150 mg/kg (300 μl of a 10 mg/ml solution) 4 days and 1 day before infection. […] Surviving mice were monitored for 12 days. […]
smiles,measurement,setting,value
"CC[C@H](C)[C@H](NC(=O)[C@H](CCCCN)NC(=O)[C@@H](N)CCCCN)C(=O)N[C@@H](CCCNC(=N)N)C(=O)N[C@H](C(=O)N[C@@H](CCCNC(=N)N)C(=O)N[C@@H](CC(C)C)C(=O)N[C@@H](CO)C(=O)N[C@@H](C)C(=O)NCCCC[C@H](NC(=O)[C@H](C)NC(=O)[C@H](CO)NC(=O)[C@H](CC(C)C)NC(=O)[C@H](CCCNC(=N)N)NC(=O)[C@@H](NC(=O)[C@H](CCCNC(=N)N)NC(=O)[C@@H](NC(=O)[C@H](CCCCN)NC(=O)[C@@H](N)CCCCN)[C@@H](C)CC)C(C)C)C(=O)NCCCC[C@H](NC(=O)[C@H](CCCCNC(=O)[C@H](C)NC(=O)[C@H](CO)NC(=O)[C@H](CC(C)C)NC(=O)[C@H](CCCNC(=N)N)NC(=O)[C@@H](NC(=O)[C@H](CCCNC(=N)N)NC(=O)[C@@H](NC(=O)[C@H](CCCCN)NC(=O)[C@@H](N)CCCCN)[C@@H](C)CC)C(C)C)NC(=O)[C@H](C)NC(=O)[C@H](CO)NC(=O)[C@H](CC(C)C)NC(=O)[C@H](CCCNC(=N)N)NC(=O)[C@@H](NC(=O)[C@H](CCCNC(=N)N)NC(=O)[C@@H](NC(=O)[C@H](CCCCN)NC(=O)[C@@H](N)CCCCN)[C@@H](C)CC)C(C)C)C(=O)NCCOCCOCCOCCOCCC(N)=O)C(C)C [SET-M33L-PEG] (I: H-KKIRVRLSAKK[PEG4]-NH2 / II: H-KKIRVRLSAK / III: H-KKIRVRLSA / IV: H-KKIRVRLSA; amide I:10-IV:C, I:11-II:C, II:10-III:C; N-terminus assumed)",survival,[1],60%
same,mortality,"[2]; single i.v. dose 40 mg/Kg, after 96 hours",90–100%
same,lethality and signs of toxicity,"[2]; single i.v. dose up to 20 mg/kg, monitored 4 days, 10 BALB/c mice/group",not lethal and no signs of toxicity were observed
same,survival,[3],80%
